Laboratory results from patent US20080262082A1, “COMPOSITION CONTAINING S-(-)-TULIPALIN B OR ACETYLATED-S-(-)-TULIPALIN B” (BIO SPECTRUM, INC., priority 2007, published 2008).
Like-named read-outs stand apart in the source and are kept apart here.

Columns and labels:
Assay type in all cases: cell-based
[1] = tested on: Neisseria meningitidis KCCM 41562; assay: MIC by broth dilution method; settings: N. meningitidis, 37° C., 24 hours
[2] = tested on: Clostridium dificile KCCM 12115; assay: MIC by broth dilution method; settings: C. difficile, 37° C., 24 hours
[3] = tested on: Aeromonas salmonicida KCTC 12266; assay: MIC by broth dilution method; settings: A. salmonicida, 37° C., 24 hours
[4] = tested on: Clostridium dificile KCCM 12115; assay: Agar diffusion antibacterial test (anaerobic); settings: C. difficile
[5] = tested on: Salmonella enteritidis KCTC 12400; assay: Agar diffusion antibacterial test (aerobic); settings: S. enteritidis
[6] = tested on: Shigella flexneri KCTC 2517; assay: MIC by broth dilution method; settings: S. flexneri, 37° C., 24 hours
[7] = tested on: Clostridium perfringens KCCM 12098; settings: C. perfringens
[8] = tested on: Moraxella catarrhalis KCCM 40056; assay: MIC by broth dilution method; settings: M. catarrhalis, 37° C., 24 hours
[9] = tested on: Vibrio parahaemolyticus KCTC 27; assay: Agar diffusion antibacterial test (aerobic); settings: V. parahaemolyticus
[10] = tested on: Propionibacterium granulosum ATCC 25564; assay: MIC by broth dilution method; settings: P. granulosum, 37° C., 24 hours
[11] = tested on: Moraxella catarrhalis KCCM 40056; assay: Agar diffusion antibacterial test (aerobic); settings: M. catarrhalis
[12] = tested on: Shigella flexneri KCTC 2517; assay: Agar diffusion antibacterial test (aerobic); settings: S. flexneri
[13] = tested on: Listeria monocytogenes KCTC 3569; assay: MIC by broth dilution method; settings: L. monocytogenes, 37° C., 24 hours
[14] = tested on: Staphylococcus aureus KCTC 1916; assay: Agar diffusion antibacterial test (aerobic); settings: S. aureus
[15] = tested on: 8 anaerobic bacterial species; assay: Agar diffusion antibacterial test, overall (anaerobic); settings: 8 anaerobic bacterial spp, agar diffusion
[16] = tested on: Corynebacterium glutamicum KCTC 1445; assay: MIC by broth dilution method; settings: C. glutamicum, 37° C., 24 hours
[17] = tested on: Shigella sonnei KCTC 2518; assay: Agar diffusion antibacterial test (aerobic); settings: S. sonnei
[18] = tested on: 18 species of pathogenic bacteria (aerobic); assay: Agar diffusion antibacterial test, overall (aerobic); settings: all kinds of test bacteria (aerobic), agar diffusion
[19] = tested on: Bordetella bronchiseptica KCCM 21998; assay: MIC by broth dilution method; settings: B. bronchiseptica, 37° C., 24 hours
[20] = tested on: Shigella sonnei KCTC 2518; assay: MIC by broth dilution method; settings: S. sonnei, 37° C., 24 hours
[21] = tested on: Pseudomonas aeruginosa KCTC 1637; assay: MIC by broth dilution method; settings: P. aeruginosa, 37° C., 24 hours
[22] = tested on: Salmonella typhimurium KCTC 2514; assay: Agar diffusion antibacterial test (aerobic); settings: S. typhimurium
[23] = tested on: Bacteroides fragilis KCTC 3688; assay: Agar diffusion antibacterial test (anaerobic); settings: B. fragilis
[24] = tested on: Bordetella bronchiseptica KCCM 21998; assay: Agar diffusion antibacterial test (aerobic); settings: B. bronchiseptica
[25] = tested on: Bacillus subtilis KCTC 1021; assay: MIC by broth dilution method; settings: B. subtilis, 37° C., 24 hours
[26] = tested on: Bacteroides fragilis KCTC 3688; assay: MIC by broth dilution method; settings: B. fragilis, 37° C., 24 hours
[27] = tested on: Streptococcus mutans KCTC 3065; assay: Agar diffusion antibacterial test (aerobic); settings: S. mutans
[28] = tested on: Yersinia enterocolitica KCCM 41657; assay: Agar diffusion antibacterial test (aerobic); settings: Y. enterocolitica
[29] = tested on: Aeromonas salmonicida KCTC 12266; assay: Agar diffusion antibacterial test (aerobic); settings: A. salmonicida

C=C1C(=O)OC[C@H]1O [S-(−)-tulipalin B, (4S)-4-hydroxy-3-methylene-oxolan-2-one]
0.10%: MIC [2] | MIC [13] | MIC [16]
0.04%: MIC [25]
0.025%: MIC [6]
12 mm: Inhibitory zone diameter ([14]; treatment concentration 0.1%) | Inhibitory zone diameter ([17]; treatment concentration 0.1%) | Inhibitory zone diameter ([23]; treatment concentration 0.03%) | Inhibitory zone diameter ([24]; treatment concentration 0.03%) | Inhibitory zone diameter ([29]; treatment concentration 0.03%)
19 mm: Inhibitory zone diameter ([9]; treatment concentration 1.0%) | Inhibitory zone diameter ([12]; treatment concentration 1.0%) | Inhibitory zone diameter ([17]; treatment concentration 1.0%) | Inhibitory zone diameter ([28]; treatment concentration 1.0%) | Inhibitory zone diameter ([29]; treatment concentration 1.0%)
high antibacterial effects: Antibacterial effects [18]
0.01%: MIC [1] | MIC [3] | MIC [26]
11.5 mm: Inhibitory zone diameter ([28]; treatment concentration 0.03%)
17 mm: Inhibitory zone diameter ([17]; treatment concentration 0.3%) | Inhibitory zone diameter ([22]; treatment concentration 0.3%) | Inhibitory zone diameter ([28]; treatment concentration 0.3%) | Inhibitory zone diameter ([29]; treatment concentration 0.3%)
relatively high antibacterial effects: Antibacterial effects [15]
20 mm: Inhibitory zone diameter ([5]; treatment concentration 1.0%) | Inhibitory zone diameter ([22]; treatment concentration 1.0%) | Inhibitory zone diameter ([24]; treatment concentration 1.0%)
16.5 mm: Inhibitory zone diameter ([5]; treatment concentration 0.3%)
13 mm: Inhibitory zone diameter ([4]; treatment concentration 0.3%) | Inhibitory zone diameter ([4]; treatment concentration 1.0%) | Inhibitory zone diameter ([5]; treatment concentration 0.1%) | Inhibitory zone diameter ([7]; treatment concentration 0.3%) | Inhibitory zone diameter ([9]; treatment concentration 0.03%) | Inhibitory zone diameter ([12]; treatment concentration 0.1%) | Inhibitory zone diameter ([22]; treatment concentration 0.1%) | Inhibitory zone diameter ([27]; treatment concentration 0.3%) | Inhibitory zone diameter ([28]; treatment concentration 0.1%) | Inhibitory zone diameter ([29]; treatment concentration 0.1%)
11 mm: Inhibitory zone diameter ([5]; treatment concentration 0.03%) | Inhibitory zone diameter ([7]; treatment concentration 0.1%) | Inhibitory zone diameter ([9]; treatment concentration 0.01%) | Inhibitory zone diameter ([11]; treatment concentration 0.03%) | Inhibitory zone diameter ([11]; treatment concentration 0.1%) | Inhibitory zone diameter ([17]; treatment concentration 0.03%) | Inhibitory zone diameter ([22]; treatment concentration 0.03%) | Inhibitory zone diameter ([27]; treatment concentration 0.1%) | Inhibitory zone diameter ([29]; treatment concentration 0.01%)
15 mm: Inhibitory zone diameter ([11]; treatment concentration 0.3%) | Inhibitory zone diameter ([14]; treatment concentration 0.3%)
14 mm: Inhibitory zone diameter ([7]; treatment concentration 1.0%) | Inhibitory zone diameter ([9]; treatment concentration 0.1%) | Inhibitory zone diameter ([23]; treatment concentration 0.1%) | Inhibitory zone diameter ([24]; treatment concentration 0.1%)
0.11%: MIC [21]
18 mm: Inhibitory zone diameter ([9]; treatment concentration 0.3%) | Inhibitory zone diameter ([11]; treatment concentration 1.0%) | Inhibitory zone diameter ([12]; treatment concentration 0.3%) | Inhibitory zone diameter ([14]; treatment concentration 1.0%) | Inhibitory zone diameter ([23]; treatment concentration 1.0%) | Inhibitory zone diameter ([24]; treatment concentration 0.3%)
10.5 mm: Inhibitory zone diameter ([4]; treatment concentration 0.1%) | Inhibitory zone diameter ([12]; treatment concentration 0.03%) | Inhibitory zone diameter ([23]; treatment concentration 0.01%)
0.03%: MIC [8] | MIC [10] | MIC [19] | MIC [20]
16 mm: Inhibitory zone diameter ([23]; treatment concentration 0.3%) | Inhibitory zone diameter ([27]; treatment concentration 1.0%)
